Reference: US9334242B2, “Compounds for treatment of cancer” (GTX, INC., priority 2010, dated 2016)
pIC50: −log10 of the molar value. Like-named read-outs stand apart in the source and are kept apart here.

Key:
A375 melanoma xenografts = assay: A375 tumor xenograft study in athymic nude mice; format: in vivo, mouse; details: for T − C: tumor growth delay
Excerpt: (§1) PC-3 and A375 tumor xenograft studies.

Bovine brain tubulin = Bovine brain tubulin (Bos taurus, UniProt P81947+Q6B856); assay: In vitro tubulin polymerization assay; format: biochemical; details: 10 μM
Procedure: In Vitro Tubulin Polymerization Assay.
In vitro microtubule polymerization assay. […] The spectrophotometer was maintained at 37° C. for tubulin polymerization.

[1] = test system: T1, tubulin colchicine binding site; assay: [3H]-colchicine competition-binding scintillation proximity assay; details: SPA
T1 construct: […]; other: SPA

WM-164 melanoma cells = assay: Microtubule imaging (immunofluorescence, Cellomics Cytoskeleton rearrangement kit); format: cell-based, human; details: WM-164 cells, 18 h
Excerpt: Primary antibody for tubulin and fluorescence-labeled secondary antibody were subsequently added to the cells. Cell nuclei were stained by DAPI. Whole Cell Stain Green was also applied to all cells. All images were acquired with an Olympus IX71 inverted fluorescence microscope (Olympus Corp., Tokyo, Japan) with overlays from separate images of tubulin (red), nuclei (blue), and whole cells (green).

B16-F1 melanoma cells = assay: Melanoma colony formation assay in soft agar; format: cell-based, mouse; details: 14 days, tested 20, 100, 500 nM
Procedure: B16-F1 melanoma cells were plated at a colony-forming density (2000 cells per well on six-well plates) on top of 0.8% base agar. Cells were grown in 0.4% agar together with DMEM medium supplemented with fetal bovine serum and an antibiotic-antimycotic solution at 37° C. in an atmosphere of 95% air and 5% CO2. […] Compounds were added to the media from 1-mM DMSO stock solutions, and a corresponding dilution of DMSO was used as control. Cells were grown for 14 days. Plates were photographed, and the number of colonies was measured by Artek 880 Automated Colony Counter (Artek Systems Corporation, Farmingdale, N.Y.).

[2] = test system: melanoma (B16-F1, A375, WM-164) and prostate cancer (LNCaP, PC-3, DU 145, PPC-1) cell lines; assay: Cytotoxicity SRB assay, ranges or averages quoted over the melanoma and prostate cancer cell lines; format: cell-based
in vivo [3] = details: female, Sprague-Dawley, rat, plasma, iv, 5 mg/kg
in vivo [4] = details: male, ICR, mouse, plasma, iv, 10 mg/kg
ICR mice = assay: Rotarod test (in vivo neurotoxicity); parameters: species or system mouse; details: 1h 5 or 15 mg/kg, vinblastine 0.5 mg/kg, i.p. daily to day 31
A375 cells = assay: Apoptosis detection by ELISA (cytoplasmic DNA-histone complexes); format: cell-based, human; details: 24 h
Excerpt: (§2) Apoptosis detection by ELISA. Quantification of the enrichment of mono- and oligonucleosomes in the cytoplasm was used to determine the ability of the compounds to induce apoptosis (cell death detection ELISA PLUS, Roche, Germany) following the manufacturer's instructions.

PC-3 cells = assay: as above; format: cell-based, human; details: 24 h
Excerpt: as §2

[5] = test system: PC-3 prostate tumor xenograft; assay: PC-3 tumor xenograft study in nude mice; format: in vivo, mouse; details: for mice that lost more than 15% body weight: PC-3 xenograft study; for % T/C: PC-3 xenograft
Excerpt: as §1

[6] = test system: prostate cancer cells (LNCaP, DU 145, PC-3, PPC-1); assay: Cytotoxicity SRB assay, values quoted for the prostate cancer cell panel; format: cell-based; details: Homo sapiens, read-out: IC50s against prostate cancer cells (range)
PC-3 = assay: Cytotoxicity / cell growth inhibition, SRB assay; details: Homo sapiens, PC-3, read-out: IC50 (nM) PC-3, Table 6A
PPC-1 = assay: Cytotoxicity / cell growth inhibition, SRB assay; details: Homo sapiens, PPC-1, 96 h, read-out: IC50 ± SEM (nM) PPC-1, Table 12; 96 h exposure
[7] = Pharmacokinetic study in ICR mice; details: ICR mice, 15 mg/kg i.v.
[8] = quoted in the text to Table 2, read-out: IC50 (range or bound over the tested cancer cell lines)
[9] = after 20 min incubation, compared to vehicle (Example 11D)
[10] = range given, read-out: IC50 (range over the tested cancer cell lines)

COc1cc(C(=O)c2csc(-c3ccc(F)cc3)n2)cc(OC)c1OC [SMART-F]
Total log cell kill (A375 melanoma xenografts; Melanoma (A375) xenograft, 15 mg/kg i.p., doubling time 4.6 d): 0.7
T − C (A375 melanoma xenografts; Melanoma (A375) xenograft, 15 mg/kg i.p.): 11 days

COc1cc(C(=O)c2c[nH]c(-c3ccc(C)cc3)n2)cc(OC)c1OC [12da, (2-(p-tolyl)-1H-imidazol-4-yl)(3,4,5-trimethoxyphenyl)methanone]
inhibition of tubulin polymerization (Bovine brain tubulin; 15 min (Example 16)): completely inhibited
competition for the tubulin colchicine binding site (in words) [1]: highest binding affinity
effect on microtubule arrangement (WM-164 melanoma cells): microtubule fragmentation
concentration with effective inhibition of B16-F1 melanoma colony formation (B16-F1 melanoma cells): 20 nM

COc1cc(C(=O)c2cccc(-c3ccccc3)c2)cc(OC)c1OC [1a, Biphenyl-3-yl(3,4,5-trimethoxyphenyl)methanone]
IC50 (range over the tested cancer cell lines) ([2]; range given): hundreds of nanomolar range

COc1cc(/C(=N\O)c2csc(-c3ccccc3)n2)cc(OC)c1OC [2e-trans, (E)-(2-Phenylthiazol-4-yl)(3,4,5-trimethoxyphenyl)methanone oxime]
pIC50 [2, 8]: < 5.00

COc1cc(C(=O)c2c[nH]c(-c3ccc(Cl)cc3)n2)cc(OC)c1OC [12fa, (2-(4-chlorophenyl)-1H-imidazol-4-yl)(3,4,5-trimethoxyphenyl)methanone]
Vd (in vivo [3]): 1.9 L/kg
clearance (in vivo [3]): 16 mL/min/kg
Vd (in vivo [4]): 4 L/kg
clearance (in vivo [4]): 61 mL/min/kg

COc1cc(C(=O)c2coc(-c3ccccc3)n2)cc(OC)c1OC [36a, (2-Phenyl-oxazol-4-yl)-(3,4,5-trimethoxy-phenyl)-methanone]
IC50 (range over the tested cancer cell lines) ([2]; range given): hundreds of nanomolar range

COc1cc(C(=O)c2csc(Nc3ccccc3)n2)cc(OC)c1OC [5a, (2-(Phenylamino)thiazol-4-yl)(3,4,5-trimethoxyphenyl)methanone]
inhibition of tubulin polymerization (Bovine brain tubulin; [9]): 78%

CC[C@]1(O)C[C@@H]2CN(CCc3c([nH]c4ccccc34)[C@@](C(=O)OC)(c3cc4c(cc3OC)N(C)[C@H]3[C@@](O)(C(=O)OC)[C@H](OC(C)=O)[C@]5(CC)C=CCN6CC[C@]43[C@@H]65)C2)C1 [vinblastine, reference compound]
time on the rotating rod compared to the vehicle group (ICR mice): gradually reduced the time

COc1ccc(S(=O)(=O)Nc2cccnc2Nc2ccc(O)cc2)cc1 [ABT-751, reference compound]
effect on microtubule arrangement (WM-164 melanoma cells): microtubule fragmentation

COc1cc(C(=O)c2csc(-c3ccc4[nH]ccc4c3)n2)cc(OC)c1OC [66a]
inhibition of tubulin polymerization (Bovine brain tubulin; [9]): 81%
pIC50 [2, 10]: 7.60 to 8.15

COc1cc(C(=O)c2csc(-c3ccccc3)n2)cc(OC)c1OC [1h, (2-Phenyl-thiazol-4-yl)-(3,4,5-trimethoxy-phenyl)-methanone]
concentration inducing apoptosis (A375 cells): 50 nM
concentration inducing apoptosis (PC-3 cells): 50 nM
time on the rotating rod compared to the vehicle group (ICR mice): no significant difference
mice that lost more than 15% body weight ([5]; 15 mg/kg i.p.): 1 of 8

COc1cc(/C(=N/O)c2csc(-c3ccccc3)n2)cc(OC)c1OC [2e-cis, (Z)-(2-Phenylthiazol-4-yl)(3,4,5-trimethoxyphenyl)methanone oxime]
pIC50 [2, 8]: 6.52 to 7.00

COc1cc(C(=O)c2csc(-c3ccc(F)cc3)n2)cc(OC)c1OC [2k]
concentration inducing apoptosis (A375 cells): 50 nM
concentration inducing apoptosis (PC-3 cells): 50 nM
inhibition of tubulin polymerization (Bovine brain tubulin; 15 min (Example 22)): 90%
% T/C ([5]; 5 mg/kg i.p.): 21%
% T/C ([5]; 15 mg/kg i.p.): 24%
mice that lost more than 15% body weight ([5]; 15 mg/kg i.p.): 2 out of 7
% T/C, A375 (A375 melanoma xenografts; 1h 20 mg/kg, 2k 15 mg/kg, i.p.): 29%
tumor volume, A375 (A375 melanoma xenografts; 1h 20 mg/kg, 2k 15 mg/kg, i.p., 34 days): 722 mm^3

COc1cc(C(=O)c2cccc(-c3ccccc3)n2)cc(OC)c1OC [1c, (6-Phenylpyridin-2-yl)(3,4,5-trimethoxyphenyl)methanone]
pIC50 [6]: 7.46 to 7.92

COc1cc(C(=O)c2csc(-c3ccc(CN(C)C)cc3)n2)cc(OC)c1OC.Cl [2u, (2-(4-((Dimethylamino)methyl)phenyl)thiazol-4-yl)(3,4,5-trimethoxyphenyl)methanone hydrochloride]
IC50 (range over the tested cancer cell lines) ([2]; range given): abrogated activity

COc1cc(C(=NC#N)c2csc(-c3ccccc3)n2)cc(OC)c1OC [2j, N-((2-phenylthiazol-4-yl)(3,4,5-trimethoxyphenyl)methylene)cyanamide]
inhibition of tubulin polymerization (Bovine brain tubulin; [9]): 64%

O=C(c1ccc(F)cc1)c1c[nH]c(-c2ccc(OCc3ccccc3)cc2)n1 [12jb, (2-(4-(benzyloxy)phenyl)-1H-imidazol-4-yl)(4-fluorophenyl)methanone]
increase in activity compared with 12 kb (fold) [2]: 440 fold

Cc1ccc(-c2nc(C(=O)c3ccc(F)cc3)c[nH]2)cc1 [12 db, (4-fluorophenyl)(2-(p-tolyl)-1H-imidazol-4-yl)methanone]
inhibition of tubulin polymerization (Bovine brain tubulin; 15 min (Example 16)): ~80%

COc1cc(C(=NC#N)c2csc(-c3ccccc3)n2)cc(OC)c1O [compound 32, N-((4-hydroxy-3,5-dimethoxyphenyl)(2-phenylthiazol-4-yl)methylene)cyanamide]
IC50 (PC-3): 229 nM

COc1cc(C(=O)c2csc(-c3ccccc3)n2)cc(OC)c1OC [SMART-H]
T − C (A375 melanoma xenografts; Melanoma (A375) xenograft, 20 mg/kg i.p.): 10 days

COc1cc(C(=O)[C@H]2COC(c3ccccc3)=N2)cc(OC)c1OC [35a, (2R)-(2-Phenyl-4,5-dihydro-oxazol-4-yl)-(3,4,5-trimethoxy-phenyl)-methanone]
IC50 (range over the tested cancer cell lines) ([2]; range given): hundreds of nanomolar range

CNCc1ccc(-c2nc(C(=O)c3cc(OC)c(OC)c(OC)c3)cs2)cc1.Cl [2s, (2-(4-((Methylamino)methyl)phenyl)thiazol-4-yl)(3,4,5-trimethoxyphenyl)methanone hydrochloride]
IC50 (range over the tested cancer cell lines) ([2]; range given): abrogated activity

CN(C)c1ccc(-c2nc(C(=O)c3ccc(F)cc3)c[nH]2)cc1 [12gb, (2-(4-(dimethylamino)phenyl)-1H-imidazol-4-yl)(4-fluorophenyl)methanone]
IC50 (PPC-1): 4 nM

COc1cc(C(=O)c2csc(-c3ccc(O)cc3)n2)cc(OC)c1OC [2l, (2-(4-Hydroxyphenyl)thiazol-4-yl)(3,4,5-trimethoxyphenyl)methanone]
concentration inducing apoptosis (A375 cells): greater than or equal to 200 nM
concentration inducing apoptosis (PC-3 cells): greater than or equal to 200 nM
inhibition of tubulin polymerization (Bovine brain tubulin; 15 min (Example 22)): 55%
pIC50 [2, 10]: 6.94 to 7.12
% T/C ([5]; 50 mg/kg i.p.): 34%
Vss relative to that of 1h and 2k (times higher) [7]: 2-3 times

COc1ccc(-c2nc(C(=O)c3ccc(F)cc3)c[nH]2)cc1 [12cb, (4-fluorophenyl)(2-(4-methoxyphenyl)-1H-imidazol-4-yl)methanone]
effect on microtubule arrangement (WM-164 melanoma cells): microtubule fragmentation
concentration with effective inhibition of B16-F1 melanoma colony formation (B16-F1 melanoma cells): 20 nM
